Experimental data: article PMC9145865, “Effects of Rare Phytocannabinoids on the Endocannabinoid System of Human Keratinocytes” (International Journal of Molecular Sciences, 2022)

Experiments:
Assay type in all cases: cell-based, human
DAGLα/β = experiment: DAGL α/β activity assay in membranes of treated cells; settings: HaCaT cells, half-IC50 amount, 24 h, vs. control
Experimental: DAGL α/β Assay: The HaCaT cells were seeded into 6-well plates at a density of 4 × 10^4 per well, incubated overnight and then treated with the selected pCBs (6.0 µM of CBG, 4.0 µM of CBC, 9.0 µM of THCV and 13.0 µM of CBGA) for 24 h. The cell pellets were collected and DAGL α/β activity was determined using membranes that were isolated from these cells using the synthetic substrate p-nitrophenyl butyrate (pNPB) (8 mM) in 50 mM of HEPES pH 7.3 at room temperature for 20 min [68]. The DAGLα/β inhibitor KT172 (1 μM), which was purchased from Sigma-Aldrich (St. Louis, MO, USA), was used to fully erase the enzyme activity as a control.

HaCaT cells [1] = experiment: MTT cytotoxicity assay; settings: for relative toxicity on HaCaT cells: 6-24 h; for IC50: Homo sapiens, HaCaT cell viability
Experimental: Immortalized HaCaT cells from the original depositor (DKFZ, Heidelberg) were purchased from CLS-Cell Lines Service (code 300493) and were of […] skin type (phototype). In all experiments, the HaCaT cells were cultured at 37 °C in a humidified 5% CO2 atmosphere in high-glucose Dulbecco’s Modified Eagle Medium (DMEM-HG), which was supplemented with 10% fetal bovine serum, and were used at the 5th–6th passage. Specific pCBs (CBG, CBC, THCV and CBGA) were used to treat the HaCaT cells at different time points (6 h, 12 h and 24 h) and at different concentrations (0.5 µM, 1.0 µM, 2.5 µM, 5.0 µM, 10 µM and 25 µM). Various doses of these pCBs were added directly to culture medium (with 1% fetal bovine serum) and the vehicles alone were added to controls, as follows: 0.8% methanol for CBG and CBC; 0.6% methanol for THCV; 0.6% acetonitrile for CBGA.
The HaCaT cells were seeded into 96-well plates at a density of 1 × 10^4 per well, incubated overnight and then treated with the selected pCBs at different concentrations (0.5 μM, 1.0 μM, 2.5 μM, 5.0 μM, 10 μM and 25 μM) for 6 h, 12 h and 24 h. Cell viability was assessed using a mitochondrial-dependent reduction of 3-[4,5-dimethylthiazol-2-yl]-2,5-diphenyl tetrazolium bromide (MTT) to purple formazan. After 4 h, the MTT solution was discarded and dimethyl sulfoxide (DMSO) was added to dissolve the formazan crystals. The cell viability was calculated by subtracting the 630 nm OD background from the 570 nm OD total signal of the cell-free blank of each sample and was expressed as percentage of the control (100%).

PPARδ = experiment: Western blot protein expression of PPARδ; settings: HaCaT cells, half-IC50 dose, 24 h, vs. control
Experimental: (§1) The HaCaT cells were seeded into 6-well plates at a density of 4 × 10^4 per well, incubated overnight and then treated with the selected pCBs (6.0 µM of CBG, 4.0 µM of CBC, 9.0 µM of THCV and 13.0 µM of CBGA) for 24 h. The cell pellets were collected and then lysed in an ice-cold lysis buffer (10 mM of EDTA, 50 mM of pH 7.4 Tris–HCl, 150 mM of sodium chloride, 1% Triton-X-100, 2 mM of phenylmethylsulfonyl fluoride, 2 mM of sodium orthovanadate, […] of leupeptin and […] of aprotinin). The amount of protein was determined using the Bio-Rad Protein assay (Bio-Rad Laboratories, Hemel Hempstead, UK). An equal amount of protein (60 µg) was loaded onto 10% sodium dodecyl sulfate–polyacrylamide gels and blotted onto polyvinylidene fluoride sheets (Amersham Biosciences, Piscataway, NJ, USA). The membranes were blocked with dried 5% non-fat milk for 1 h and then incubated with suitable primary antibodies. Detection was performed using Azure Biosystems c400 (Dublin, CA, USA). The membranes were stripped using the Restore Western Blot Stripping Buffer from Thermo Fisher Scientific (Waltham, MA, USA) for 30 min under agitation at room temperature, according to the manufacturer’s instructions. The primary antibodies (Table 6) that were used were obtained from the following sources: […]

PPARα = experiment: Western blot protein expression of PPARα; settings: HaCaT cells, half-IC50 dose, 24 h, vs. control
Experimental: as §1

FAAH = FAAH activity assay in membranes of treated cells; settings: HaCaT cells, half-IC50 amount, 24 h, vs. control
Experimental: FAAH Assay: The HaCaT cells were seeded into 6-well plates at a density of 4 × 10^4 per well, incubated overnight and then treated with the selected pCBs (6.0 µM of CBG, 4.0 µM of CBC, 9.0 µM of THCV and 13.0 µM of CBGA) for 24 h. The cell pellets were collected and FAAH activity was determined using membranes that were isolated from these cells. Briefly, the membranes were incubated at pH 7.4 with 10 μM of [^3H]AEA and 50 mM of Tris–HCl, 0.05% BSA at 37 °C in water bath for 30 min. The reaction was blocked with 1 mL of chloroform–methanol (1:1 v/v) and centrifuged at 3000 rpm for 10 min at 4 °C. The aqueous (top) layer was collected and transferred into scintillation vials. The amount of [^3H]ethanolamine that was released was expressed as pmol per min per mg of protein, as reported in [67].

HaCaT cells [2] = experiment: Apoptosis, DNA fragmentation ELISA; settings: 24 h
Experimental: The HaCaT cells were seeded into 96-well plates at a density of 1 × 10^4 per well, incubated overnight and then treated with the selected pCBs at different concentrations (0.5 μM, 1.0 μM, 2.5 μM, 5.0 μM, 10 μM and 25 μM) for 24 h. After treatment, apoptotic cell death was quantified for specific compounds using ELISA assays, which were based on the evaluation of DNA fragmentation through an immunoassay for histone-associated DNA fragments in the cell cytoplasm. The specific determination of mono- and oligonucleosomes in the cytoplasmic fraction of cell lysates was performed by measuring the absorbance values at 405 nm, as reported in [60].

NAPE-PLD = experiment: Western blot protein expression of NAPE-PLD; settings: HaCaT cells, half-IC50 dose, 24 h, vs. control
Experimental: as §1

CB2 = experiment: Western blot protein expression of CB2; settings: HaCaT cells, half-IC50 dose, 24 h, vs. control
Experimental: as §1

Structure (SMILES) | DAGLα/β activity (DAGLα/β) | relative toxicity on HaCaT cells (HaCaT cells [1]) | IC50 (HaCaT cells [1]; 6 h) | IC50 (HaCaT cells [1]; 12 h) | IC50 (HaCaT cells [1]; 24 h) | PPARδ protein expression (in words) (PPARδ) | Protein Expression PPARδ (PPARδ) | PPARα protein expression (in words) (PPARα) | Protein Expression PPARα (PPARα) | activity of FAAH (FAAH) | DNA fragmentation (hallmark of apoptosis) (HaCaT cells [2]; all doses (0.5-25 µM)) | NAPE-PLD protein expression (in words) (NAPE-PLD) | Protein Expression NAPE-PLD (NAPE-PLD) | CB2 protein expression (in words) (CB2) | Protein Expression CB2 (CB2) | DNA fragmentation (hallmark of apoptosis) (HaCaT cells [2]; 25 µM) | DNA fragmentation (hallmark of apoptosis) (HaCaT cells [2]; 10 µM)
CCCc1cc(O)c2c(c1)OC(C)(C)[C@@H]1CCC(C)=C[C@@H]21 [THCV, Δ^9-tetrahydrocannabivarin] | increased DAGLα/β activity remarkably | least toxic | 14.3 µM | 22.4 µM | 18.6 µM | significantly reduced | ↓++++ | significantly reduced | ↓++ | significantly increased | ineffective | significantly increased | ↑++++ | reducing | ↓+++ | – | –
CCCCCc1cc(O)c(C/C=C(\C)CCC=C(C)C)c(O)c1C(=O)O [CBGA, cannabigerolic acid] | – | least toxic | > 25 µM | 24.5 µM | > 25 µM | significantly reduced | ↓++++ | significantly reduced | ↓++++ | significantly increased | – | significantly increased | NAPE-PLD ↑++++ FAAH ↑++++ DAGLα ↑++++ MAGL ↑++++ | reducing | ↓++++ | significant increase | –
CCCCCc1cc(O)c2c(c1)OC(C)(CCC=C(C)C)C=C2 (stereo not drawn) [CBC, cannabichromene] | increased DAGLα/β activity remarkably | – | 15.3 µM | 15.6 µM | 8.2 µM | significantly reduced | ↓++++ | significantly reduced | ↓++ | significantly increased | – | significantly increased | – | reducing | ↓+ | – | –
CCCCCc1cc(O)c(C/C=C(\C)CCC=C(C)C)c(O)c1 [CBG, cannabigerol] | increased DAGLα/β activity remarkably | – | 13.5 µM | 13 µM | 11.7 µM | significantly reduced | ↓+++ | – | – | significantly increased | – | significantly increased | ↑++++ | reducing | ↓+ | significant increase | induced the same effect
